For series [1] the following is noted: in vitro; cited from earlier work.
The conditions of series [2]: cited from earlier work; for pharmacokinetic comparison of leucovorin and levoleucovorin: in vivo.
Series [3] relates to solid colorectal cancer tumors (mCRC, incl. BRAF- or KRAS-mutated). Nature of the series: Clinical study ISO-CC-005 (Phase I/IIa), safety extension cohorts and follow-up study: tumour response by CT, ORR per RECIST 1.1. The format is in vivo, human. The conditions noted are these: 19 patients harbouring either mutated KRAS or BRAF; 16 weeks and beyond; 120 mg/m2 arfolitixorin. The text has this:
As used herein, the term ORR shall refer to the Objective Response Rate, i.e. the proportion of patients with a reduction in tumor burden of a predefined amount. […] (Note: the appearance of one or more new lesions is also considered progression). […] As used herein, the term best ORR shall refer to the best overall response rate as per RECIST guideline version 1.1 for the treatment period, where applicable. Arfolitixorin has been in development for a number of years and has been studied in several clinical studies. […] 2019. The completion of the study was announced in January 2020. In total, 105 patients were included in the study. Applicant completed the dose definition part of ISO-CC-005 in March 2018, which evaluated the safety and efficacy of arfolitixorin in patients with mCRC. Shortly after, applicant started two additional treatment groups in 2018 to generate more safety and efficacy data, i.e. the safety extension Cohort #18 (Treatment Arm #4) and Cohort #19 (Treatment Arm #6). The aim was to evaluate as many patients as possible from the additional treatment groups after a treatment period of 16 weeks+. On 30 Sep. […] The goal with the Dose-finding Part of the Main Study was to establish the Arfolitixorin dose level assessed as having the most favourable profile, i.e. the selected phase 2 dose (SP2D). […] Response was measured in short- and long-term assessments. […]

The structures appear in SMILES notation. Bounds are passed on as bounds.

Take `Nc1nc(=O)c2c([nH]1)NC[C@H](CNc1ccc(C(=O)N[C@@H](CCC(=O)O)C(=O)O)cc1)N2C=O` [1-LV]: the “conversion to the biologically available methyl-tetrahydrofolate form” value in series [1] is given as “rapidly converted”. Moreover, in series [2], the “pharmacokinetic comparison of leucovorin and levoleucovorin” value is reported as “pharmacokinetically identical”.

In the case of `Nc1nc2c(c(=O)[nH]1)N(C=O)C(CNc1ccc(C(=O)N[C@@H](CCC(=O)O)C(=O)O)cc1)CN2` (some centres unmarked) [Leucovorin, 5-formyl tetrahydrofolic acid], in series [2], the “pharmacokinetic comparison of leucovorin and levoleucovorin” value is “pharmacokinetically identical”.

On to `Nc1nc2c(c(=O)[nH]1)N1CN(c3ccc(C(=O)N[C@@H](CCC(=O)O)C(=O)O)cc3)C[C@H]1CN2` [[6R]-5,10-MTHF, [6R]-5,10-methylenetetrahydrofolate], for which the “best ORR” value in series [3] was more than 50%.

Regarding `Nc1nc2c(c(=O)[nH]1)N(C=O)[C@H](CNc1ccc(C(=O)N[C@@H](CCC(=O)O)C(=O)O)cc1)CN2` [d-LV], the excretion entry in series [2] (kidneys) is “slowly excreted by the kidneys”.

The record behind these values is US20230095428A1, “[6R]-MTHF IN 5-FU BASED CHEMOTHERAPY OF BRAF- OR KRAS-MUTATED COLORECTAL CANCER” (Isofol Medical AB, priority 2021, published 2023).
